Measurements published in publication PMC7072329, “Discovery of Kynurenines Containing Oligopeptides as Potent Opioid Receptor Agonists” (Biomolecules, 2020).
pKi: −log10 of the molar value. Where a SMILES comes first, the peptide text is derived from it. [ ]: non-standard residue; d: D form. Kyn = Nc1ccccc1C(=O)C[C@H](N)C(=O)O

Tests used:
[1] = stability in human plasma; type: in vitro ADME; settings: 37 °C
Procedure: Five microliters of K6 (500 μg in 250 μL of water) were added to 45 μL of fresh human plasma, then incubated at 37 ± 1 °C. Prepared samples were removed at several designated time points and incubation was stopped by adding an equal volume of the sequencing mixture (5% aqueous ZnSO4 solution, MeOH, and ACN; 5:3:2), which precipitated proteins, to achieve a final concentration of 100 μg/mL. The mixture was vortexed and centrifuged at 12,000× g for 5 min, then 20 μL of clear supernatant was directly injected into the HPLC system (Waters model 600 solvent pump and 2996 photodiode array detector, with XBridge BEH 130 C18, 4.6 × 250 mm, 5 μm). The samples were tested in three independents experiments (n = 3) and reported values represent the mean ± standard error (SEM). Data were analysed using simple regression analysis (significant deviation from zero: F1,13 = 171.9, p < 0.0001; Y = −0.9705 × X + 95.98).
Five calibration standards were injected into the HPLC-UV/Vis system. HPLC analyses were performed on a Waters liquid chromatograph equipped with a model 600 solvent pump and a 2996 photodiode array detector, and the mobile phase was degassed directly on-line by using Degassex, mod. DG-4400 (Phenomenex, Torrance, CA, USA). Empower v2.0 Software (Waters Spa, Milford, MA, USA) was used for data acquisition and elaboration. A reversed-phase packing column (XBridge BEH 130 C18, 4.6 × 250 mm, 5 μm; Waters Spa, Milford, MA, USA) was employed for the separation and the column was held at room temperature (22 ± 1 °C). K6 remaining concentrations at different times are reported below. For quantitative analyses, selective detection was performed at 210 nm. Gradient elution mode was performed using a mobile phase containing a […] water-ACN ratio as starting conditions and gradient program as reported. […]
All the sample solutions were previously centrifuged and 20 µL of the supernatant was injected into the HPLC-UV/Vis system. Calibration curves from 2 to 10 μg/mL were calculated by analyzing five non-zero concentration standards prepared in freshly spiked plasma solution in triplicate and extracted. All quantitative analyses were performed at 210 nm. Calibration curves were linear with r2 values always greater than 0.988 (n = 3). In reported chromatographic conditions, the retention times for K6 was 16.45 minutes (± 0.4, n = 20), the substance identity was confirmed by LS-MS analysis.
Time ( minutes) K6 Concentration (µg/mL) K6% of degradation

NMDA receptor = test: [3H]MK-801 competition binding, rat brain membrane; settings: read-out: Ki + S.E.M., displacement of [3H]MK-801
CD-1 male mice = test: formalin test; type: in vivo; settings: s.c. in hind paw, 100 μg/20 μL, 15 min before formalin
Procedure: In our experiments, we used CD-1 male mice (Harlan, Italy, 25–30 g) maintained in colony, housed in cages (7 mice per cage) under standard light/dark cycle (from 7:00 a.m. to 7:00 p.m.), temperature (21 ± 1 °C) and relative humidity (60% ± 10%) for at least 1 week. Food and water were available ad libitum. The Service for Biotechnology and Animal Welfare of the Istituto Superiore di Sanità and the Italian Ministry of Health authorized the experimental protocol according to Legislative Decree 26/14.
DMSO was purchased from Merck (Rome, Italy). Peptides solutions were freshly prepared using saline containing 0.9% NaCl and DMSO in the ratio DMSO/saline 1:5 v/v every experimental day. These solutions were injected at a volume of 10 μL/mouse for intracerebroventricular (i.c.v.) administrations or at a volume of 20 μL/mouse for subcutaneous administrations.
In the formalin test, the injection of a dilute solution of formalin (1%, 20 μL/paw) into the dorsal surface of the mouse hind paw evoked biphasic nociceptive behavioral responses, such as licking, biting the injected paw, or both, occurring from 0 to 10 min after formalin injection (the early phase) and a prolonged phase, occurring from 15 to 40 min (the late phase). Before the test, mice were individually placed in a Plexiglas observation cage (30 × 14 × 12 cm) for one hour, to acclimatize to the testing environment. The total time the animal spent licking or biting its paw during the early and late phase of formalin-induced nociception was recorded.
Experimental data were expressed as mean ± s.e.m. In the tail flick test, significant differences among the groups were evaluated with two-way ANOVA followed by Sidak’s multiple comparisons test. Formalin test data were analyzed by using one-way ANOVA, followed by Holm–Sidak’s multiple comparisons test. […] Statistical significance was set at p < 0.05. The data and statistical analysis comply with the recommendations on experimental design and analysis in pharmacology.
Early phase represents the formalin-induced nociceptive behavior recorded from 0 to 10 min after formalin injection; late phase is for the formalin-induced nociceptive behavior recorded from 15 to 40 min after formalin injection. V is for vehicle-treated animals. Statistical analysis: one-way ANOVA followed by Holm–Sidak’s multiple comparisons test. ** is for p < 0.01 and *** is for p < 0.001 vs. V. n = 7.

## C[C@@H](NC(=O)[C@@H](N)Cc1ccc(O)cc1)C(=O)NCC(=O)N[C@@H](Cc1ccccc1)C(=O)N[C@@H](CC(=O)c1ccccc1N)C(N)=O [Peptide K6] (H-Y[dA]GF[Kyn]-NH2)
[1]; 0 minutes
  K6% of degradation: 0%
[1]; fresh human plasma, 5 minutes, read-out: K6% of degradation
  metabolised at 5 min, 200 μg/mL: 7%
[1]; fresh human plasma, 10 minutes, read-out: K6% of degradation
  metabolised at 10 min, 200 μg/mL: 15%
[1]; fresh human plasma, 30 minutes, read-out: K6% of degradation
  metabolised at 0.5 h, 200 μg/mL: 36%
[1]; fresh human plasma, 60 minutes, read-out: K6% of degradation
  metabolised at 1 h, 200 μg/mL: 56%
[1]; plasma (fresh), linear regression, read-out: t1/2 in human plasma
  half-life at 200 μg/mL: 47 min
NMDA receptor
  pKi: < 5.00
CD-1 male mice; 0 to 10 min
  formalin-induced nociceptive behavior, early phase: able to reduce the nociceptive response to formalin in the early phase
CD-1 male mice; 15 to 40 min
  formalin-induced nociceptive behavior, late phase: light but not significant reduction
